In PubChem BioAssay (NCI):
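Grown in 96-well plates, cells were treated for 48 hours with each compound at five concentrations. Insufficient inhibition: endpoint recorded as highest concentration tested. TGI: concentration producing complete growth inhibition.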

How the values were obtained:
Assay in all cases: DTP human tumour cell line panel, 48 h
NCI-H226 lung = tested on: NCI-H226 lung
M14 melanoma = tested on: M14 melanoma
K-562 leukemia = tested on: K-562 leukemia
HCC-2998 colon = tested on: HCC-2998 colon
SF-539 CNS = tested on: SF-539 CNS
SK-MEL-28 melanoma = tested on: SK-MEL-28 melanoma
RXF 393 renal = tested on: RXF 393 renal
ACHN renal = tested on: ACHN renal
IGROV1 ovarian = tested on: IGROV1 ovarian
PC-3 prostate = tested on: PC-3 prostate
HS 578T breast = tested on: HS 578T breast
NCI/ADR-RES ovarian = tested on: NCI/ADR-RES ovarian

Row | SMILES | TGI (NCI-H226 lung) [µM] | TGI (M14 melanoma) [µM] | TGI (K-562 leukemia) [µM] | TGI (HCC-2998 colon) [µM] | TGI (SF-539 CNS) [µM] | TGI (SK-MEL-28 melanoma) [µM] | TGI (RXF 393 renal) [µM] | TGI (ACHN renal) [µM] | TGI (IGROV1 ovarian) [µM] | TGI (PC-3 prostate) [µM] | TGI (HS 578T breast) [µM] | TGI (NCI/ADR-RES ovarian) [µM]
1 | CCCCC1(OC(=O)CCC(=O)O)CCC2(CCC(C)C(C/C=C(C)/C=C/C(O)C(C)/C=C/C(=O)O)O2)OC1CC/C(C)=C/C(=O)O (centres undefined) | 6.1 | 4.52 | 9.99 | 9.98 | 3.51 | 5.07 | 4.58 | 26.2 | 4.89 |  |  | 
2 | Cc1ccc2nc(CN3CCCCC3)cc(=O)n2c1 | > 100 | > 100 | > 100 | > 100 | > 100 | > 100 |  | > 100 | > 100 | > 100 | > 100 | > 100
3 | O=C(/C=C\c1cccc2ccccc12)c1ccc(Br)cc1 | > 100 | 32 | 44.2 | 31.7 | 41.9 | 27.7 |  | 31.2 | 46.1 |  |  | 
4 | N=c1oc2cc(O)c(O)cc2cc1C(N)=O | > 100 | > 100 | > 100 | > 100 | > 100 | > 100 | > 100 | > 100 | > 100 |  |  | 
5 | O=C(/C=C/c1c(O)c2ccccc2[nH]c1=O)CC(=O)C(=O)Nc1cccc(O)c1 | > 100 | > 100 | > 100 | > 100 | > 100 | > 100 |  | > 100 | > 100 | > 100 | > 100 | > 100
6 | CN=C1Nc2ccccc2C(=S)N2CSC[C@@H]12 |  | > 100 | > 100 | > 100 | > 100 | > 100 | > 100 | > 100 |  | > 100 |  | > 100
7 | CN(C)c1cccc(-c2cc(=O)c3cc4c(cc3[nH]2)OCO4)c1 | 1.32 | 0.461 | > 100 | 0.567 | 0.756 | > 100 | 0.859 | > 37 | > 47.5 |  |  | 
8 | CC/C(=C/OC)P1(=O)OC(C)(C)CN1C(C)(C)C (centres undefined) | > 100 | > 100 | > 100 | > 100 | > 100 |  |  | > 100 | > 100 | > 100 |  | > 100
9 | C=CCN1C(=O)N/C(=C\c2ccc(Cl)cc2)C1=O | > 100 | > 100 | > 100 |  | > 100 | > 100 | > 100 | > 100 | > 100 |  | > 100 | > 100
10 | NC(=S)Nc1nnc(-c2ccc(-c3nnc(NC(N)=S)o3)cc2)o1 | > 100 | > 100 | > 100 | > 100 | > 100 | > 100 | > 100 | > 100 | > 100 |  |  | 
11 | O=C(/C=C(\O)C(=O)O)/C=C(\O)c1ccccc1Cl | > 100 | > 100 | > 100 | > 100 | > 100 | > 100 | > 100 | > 100 | > 100 |  |  | 
12 | COc1cc(/C=C2\CCC(C)c3c2nc(N)c(C#N)c3-c2cc(OC)c(OC)c(OC)c2)cc(OC)c1OC (centres undefined) |  | > 100 | > 100 |  |  | > 100 | > 100 | > 100 | > 100 | > 100 | 75.1 | 
13 | CC(C)C1=CC(=O)C(C)(C2=NC(C)(C)CO2)c2ccccc21 (centres undefined) | > 100 | > 100 | > 100 |  | > 100 | > 100 | > 100 | > 100 | > 100 |  |  | 
14 | Cc1cccc(NC(=O)CSc2nnc(Cc3ccccc3)o2)c1 | > 100 | > 100 | > 100 | > 100 | > 100 | > 100 | > 100 | > 100 | > 100 |  |  | 
15 | Cc1c(C(=O)Nc2ccc(Cl)c(C(F)(F)F)c2)oc2cc(O)ccc2/c1=N\NC(N)=S | > 100 | > 100 | > 100 | > 100 | > 100 | > 100 | > 100 | > 100 | > 100 |  |  | 
16 | Cc1nc(Nc2ccccc2)sc1C(=O)NNC(N)=O | > 100 | > 100 | > 100 | > 100 | > 100 | > 100 | > 100 | > 100 | > 100 |  |  | 
17 | C=CCNC(NCC=C)=C(C(Cl)=C(Cl)Cl)[N+](=O)[O-] | > 100 | > 100 | 54.3 | > 100 | 71.7 | > 100 |  | > 100 |  | > 100 | 54 | > 100
18 | COc1ccccc1NC(=S)Nc1cccc(C)n1 | > 100 | > 100 | > 100 |  | > 100 | > 100 | > 100 |  | > 100 | > 100 | > 100 | > 100
19 | O=C(O/N=C1/CCC/C1=C\c1ccccc1)c1ccccc1 | > 100 | > 100 | > 100 |  | > 100 | > 100 | > 100 | > 100 | > 100 |  |  | 
20 | COCC1OCCN1C (centres undefined) | > 100 | > 100 | > 100 |  | > 100 |  | > 100 | > 100 | > 100 | > 100 | > 100 | > 100
21 | Nc1ccccc1C(=O)NNC(=O)c1ccccc1N | > 100 | > 100 | > 100 | > 100 | > 100 | > 100 | > 100 | > 100 | > 100 | > 100 |  | > 100
22 | Cc1ccc(C2=NN(C)COC2C(F)(F)F)cc1 (centres undefined) | > 100 | > 100 | > 100 | > 100 | > 100 | > 100 | > 100 | > 100 | > 100 |  |  | 
